Values of other authors, collected in paper PMC9516332 (Frontiers in Oncology, 2022).
Like-named read-outs stand apart in the source and are kept apart here.

Columns and labels:
Conditions in all cases: cited from earlier work
[1] = target: panel of 255 wild-type kinases (Homo sapiens, UniProt Q86V86)
[2] = target: panel of 255 wild-type kinases (Homo sapiens, UniProt P29317)
[3] = target: T1, panel of 255 wild-type kinases (Homo sapiens, UniProt P54753)
T1 sequence (P54753 34-998): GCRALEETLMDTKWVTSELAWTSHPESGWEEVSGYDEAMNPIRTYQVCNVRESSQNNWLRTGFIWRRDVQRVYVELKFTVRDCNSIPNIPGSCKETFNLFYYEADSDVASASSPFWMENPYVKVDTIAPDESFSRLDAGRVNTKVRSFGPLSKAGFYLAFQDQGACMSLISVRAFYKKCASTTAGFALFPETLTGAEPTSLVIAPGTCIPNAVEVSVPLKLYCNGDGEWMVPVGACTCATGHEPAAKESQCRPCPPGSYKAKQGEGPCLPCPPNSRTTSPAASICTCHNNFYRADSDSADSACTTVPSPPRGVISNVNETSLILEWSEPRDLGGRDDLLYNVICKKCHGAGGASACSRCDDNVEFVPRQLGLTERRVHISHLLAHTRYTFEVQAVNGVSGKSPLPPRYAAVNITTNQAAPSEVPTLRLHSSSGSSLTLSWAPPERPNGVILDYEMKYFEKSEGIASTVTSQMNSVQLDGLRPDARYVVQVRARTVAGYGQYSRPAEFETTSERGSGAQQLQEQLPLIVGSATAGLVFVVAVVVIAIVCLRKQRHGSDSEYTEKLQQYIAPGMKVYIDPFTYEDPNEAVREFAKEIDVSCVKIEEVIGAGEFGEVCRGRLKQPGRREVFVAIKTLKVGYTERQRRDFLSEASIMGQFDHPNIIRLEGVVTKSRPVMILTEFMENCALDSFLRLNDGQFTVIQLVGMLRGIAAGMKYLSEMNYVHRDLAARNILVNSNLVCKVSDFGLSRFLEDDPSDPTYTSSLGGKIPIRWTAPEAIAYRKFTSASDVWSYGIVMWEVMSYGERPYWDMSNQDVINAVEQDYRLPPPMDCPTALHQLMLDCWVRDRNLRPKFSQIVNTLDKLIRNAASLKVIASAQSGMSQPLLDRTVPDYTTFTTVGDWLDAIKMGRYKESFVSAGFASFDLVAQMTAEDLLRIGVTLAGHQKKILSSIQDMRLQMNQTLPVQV

[4] = target: panel of 255 wild-type kinases (Homo sapiens, UniProt Q5VT25)
[5] = target: T2, panel of 255 wild-type kinases (Homo sapiens, UniProt Q9UL54)
T2 sequence (Q9UL54 1-1235): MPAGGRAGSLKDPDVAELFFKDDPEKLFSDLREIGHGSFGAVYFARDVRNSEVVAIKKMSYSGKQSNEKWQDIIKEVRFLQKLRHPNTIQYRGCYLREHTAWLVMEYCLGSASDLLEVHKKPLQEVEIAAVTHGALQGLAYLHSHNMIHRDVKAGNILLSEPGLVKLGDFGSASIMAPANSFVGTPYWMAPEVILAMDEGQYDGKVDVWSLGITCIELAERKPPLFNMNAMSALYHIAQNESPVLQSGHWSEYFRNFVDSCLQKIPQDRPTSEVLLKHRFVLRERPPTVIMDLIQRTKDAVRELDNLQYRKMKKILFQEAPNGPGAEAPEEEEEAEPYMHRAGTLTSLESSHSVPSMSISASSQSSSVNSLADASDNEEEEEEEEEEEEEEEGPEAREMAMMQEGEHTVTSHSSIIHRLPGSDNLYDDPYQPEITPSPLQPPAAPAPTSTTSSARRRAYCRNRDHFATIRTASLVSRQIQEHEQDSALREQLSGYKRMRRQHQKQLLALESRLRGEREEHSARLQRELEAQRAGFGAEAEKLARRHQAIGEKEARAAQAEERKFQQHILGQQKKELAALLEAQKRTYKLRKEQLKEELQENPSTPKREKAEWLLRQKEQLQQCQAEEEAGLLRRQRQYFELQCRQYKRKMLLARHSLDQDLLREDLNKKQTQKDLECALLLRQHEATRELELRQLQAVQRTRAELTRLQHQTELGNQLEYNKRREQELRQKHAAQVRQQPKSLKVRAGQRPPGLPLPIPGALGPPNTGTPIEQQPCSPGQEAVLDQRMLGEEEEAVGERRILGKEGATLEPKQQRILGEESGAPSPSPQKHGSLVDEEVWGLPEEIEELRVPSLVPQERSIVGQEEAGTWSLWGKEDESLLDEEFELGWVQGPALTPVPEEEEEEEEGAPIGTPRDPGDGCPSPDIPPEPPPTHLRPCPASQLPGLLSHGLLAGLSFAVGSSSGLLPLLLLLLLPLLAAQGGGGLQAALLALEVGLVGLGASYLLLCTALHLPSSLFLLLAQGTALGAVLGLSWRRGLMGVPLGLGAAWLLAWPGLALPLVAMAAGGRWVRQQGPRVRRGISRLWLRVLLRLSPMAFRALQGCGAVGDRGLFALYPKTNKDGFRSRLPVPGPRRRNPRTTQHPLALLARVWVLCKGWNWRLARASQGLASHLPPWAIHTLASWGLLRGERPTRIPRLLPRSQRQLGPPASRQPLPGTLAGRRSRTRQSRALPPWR

[6] = target: panel of 255 wild-type kinases (Homo sapiens, UniProt P35916)
[7] = target: panel of 255 wild-type kinases (Homo sapiens, UniProt Q9H4A3)
[8] = target: panel of 255 wild-type kinases (Homo sapiens, UniProt Q9H2X6)
[9] = kinase PIM3, 1 µmol/L single concentration, ref DOI: 10.1158/1535-7163.MCT-18-0877
[10] = kinase EPHA2, 1 µmol/L single concentration, ref DOI: 10.1158/1535-7163.MCT-18-0877
[11] = kinase EPHB3, 1 µmol/L single concentration, ref DOI: 10.1158/1535-7163.MCT-18-0877
[12] = MRCKα, 1 µmol/L single concentration, ref DOI: 10.1158/1535-7163.MCT-18-0877
[13] = kinase TAOK2, 1 µmol/L single concentration, ref DOI: 10.1158/1535-7163.MCT-18-0877
[14] = kinase FLT4, 1 µmol/L single concentration, ref DOI: 10.1158/1535-7163.MCT-18-0877
[15] = kinase WNK1, 1 µmol/L single concentration, ref DOI: 10.1158/1535-7163.MCT-18-0877
[16] = kinase HIPK2, 1 µmol/L single concentration, ref DOI: 10.1158/1535-7163.MCT-18-0877
[17] = kinase PIM3, 1 µmol/L single concentration, ref DOI: 10.1371/journal.pone.0092146
[18] = kinase EPHA2, 1 µmol/L single concentration, ref DOI: 10.1371/journal.pone.0092146
[19] = kinase EPHB3, 1 µmol/L single concentration, ref DOI: 10.1371/journal.pone.0092146
[20] = MRCKα, 1 µmol/L single concentration, ref DOI: 10.1371/journal.pone.0092146
[21] = kinase TAOK2, 1 µmol/L single concentration, ref DOI: 10.1371/journal.pone.0092146
[22] = kinase FLT4, 1 µmol/L single concentration, ref DOI: 10.1371/journal.pone.0092146
[23] = kinase WNK1, 1 µmol/L single concentration, ref DOI: 10.1371/journal.pone.0092146
[24] = kinase HIPK2, 1 µmol/L single concentration, ref DOI: 10.1371/journal.pone.0092146

| SMILES | %-inhibition at 1 µmol/L, PIM3 [1, 9] [%] | %-inhibition at 1 µmol/L, EPHA2 [2, 10] [%] | %-inhibition at 1 µmol/L, EPHB3 [3, 11] [%] | %-inhibition, MRCKα [4, 12] [%] | %-inhibition at 1 µmol/L, TAOK2 [5, 13] [%] | %-inhibition at 1 µmol/L, FLT4 [6, 14] [%] | %-inhibition at 1 µmol/L, WNK1 [7, 15] [%] | %-inhibition at 1 µmol/L, HIPK2 [8, 16] [%] | further results |
| --- | --- | --- | --- | --- | --- | --- | --- | --- | --- |
| CC#CC(=O)N1CCC[C@H]1c1nc(-c2ccc(C(=O)Nc3ccccn3)cc2)c2c(N)nccn12 [acalabrutinib] | -0.0376 | -3.6 | 1.64 | -7.47 | 5.31 | 1.41 | 5.36 | -11 | – |
| CCc1cc2c(cc1N1CCC(N3CCOCC3)CC1)C(C)(C)c1[nH]c3cc(C#N)ccc3c1C2=O [alectinib] | 52 | 1.88 | 2 | -0.84 | 5.52 | 39 | 6 | 8 | – |
| COc1cc(N2CCC(N3CCN(C)CC3)CC2)ccc1Nc1ncc(Cl)c(Nc2ccccc2P(C)(C)=O)n1 [brigatinib] | – | – | – | – | – | – | – | – | %-inhibition at 1 µmol/L, PIM3 [1]: 5.69%; %-inhibition at 1 µmol/L, EPHA2 [2]: -2.16%; %-inhibition at 1 µmol/L, EPHB3 [3]: 0.727%; %-inhibition, MRCKα [4]: 18%; %-inhibition at 1 µmol/L, TAOK2 [5]: 16%; %-inhibition at 1 µmol/L, FLT4 [6]: 99%; %-inhibition at 1 µmol/L, WNK1 [7]: 5%; %-inhibition at 1 µmol/L, HIPK2 [8]: 9% |
| Cc1cc(Nc2ncc(Cl)c(Nc3ccccc3S(=O)(=O)C(C)C)n2)c(OC(C)C)cc1C1CCNCC1 [ceritinib] | -0.463 | 5.69 | -1 | 1.61 | 7 | 75 | 4.45 | 37 | – |
| O=C(c1ccc(F)c(F)c1Nc1ccc(I)cc1F)N1CC(O)([C@@H]2CCCCN2)C1 [cobimetinib] | -0.814 | 2.79 | 0.898 | -7 | 5.42 | -6 | -0.124 | 1.68 | – |
| C[C@@H](Oc1cc(-c2cnn(C3CCNCC3)c2)cnc1N)c1c(Cl)ccc(F)c1Cl [crizotinib] | – | – | – | – | – | – | – | – | %-inhibition at 1 µmol/L, PIM3 [1, 17]: -4%; %-inhibition at 1 µmol/L, EPHA2 [2, 18]: 86%; %-inhibition at 1 µmol/L, EPHB3 [3, 19]: 5%; %-inhibition, MRCKα [4, 20]: -8%; %-inhibition at 1 µmol/L, TAOK2 [5, 21]: 33%; %-inhibition at 1 µmol/L, FLT4 [6, 22]: 48%; %-inhibition at 1 µmol/L, WNK1 [7, 23]: -3%; %-inhibition at 1 µmol/L, HIPK2 [8, 24]: -6.53% |
| CC(C)(C)c1nc(-c2cccc(NS(=O)(=O)c3c(F)cccc3F)c2F)c(-c2ccnc(N)n2)s1 [dabrafenib] | – | – | – | – | – | – | – | – | %-inhibition at 1 µmol/L, PIM3 [1, 17]: 9%; %-inhibition at 1 µmol/L, EPHA2 [2, 18]: 7%; %-inhibition at 1 µmol/L, EPHB3 [3, 19]: 3%; %-inhibition, MRCKα [4, 20]: -1.84%; %-inhibition at 1 µmol/L, TAOK2 [5, 21]: 34%; %-inhibition at 1 µmol/L, FLT4 [6, 22]: 85%; %-inhibition at 1 µmol/L, WNK1 [7, 23]: 1.14%; %-inhibition at 1 µmol/L, HIPK2 [8, 24]: 42% |
| C=CC(=O)N1CCC[C@@H](n2nc(-c3ccc(Oc4ccccc4)cc3)c3c(N)ncnc32)C1 [ibrutinib] | -0.241 | 7 | 3 | -0.621 | 5 | 91 | 2.3 | 2 | – |
| CO[C@@H]1[C@H](N(C)C(=O)c2ccccc2)C[C@H]2O[C@]1(C)n1c3ccccc3c3c4c(c5c6ccccc6n2c5c31)C(=O)NC4 [midostaurin] | 71 | 3.36 | 1.53 | 14 | 9 | 99 | 5.36 | 34 | – |
| C=CC(=O)Nc1cc(Nc2nccc(-c3cn(C)c4ccccc34)n2)c(OC)cc1N(C)CCN(C)C [osimertinib] | 15 | 3.35 | -0.0464 | -4.55 | 7 | 40 | -1.88 | 40 | – |
| CC(=O)Nc1cccc(-n2c(=O)n(C3CC3)c(=O)c3c(Nc4ccc(I)cc4F)n(C)c(=O)c(C)c32)c1 [trametinib] | – | – | – | – | – | – | – | – | %-inhibition at 1 µmol/L, PIM3 [1, 17]: 8.44%; %-inhibition at 1 µmol/L, EPHA2 [2, 18]: -8.53%; %-inhibition at 1 µmol/L, EPHB3 [3, 19]: -5.47%; %-inhibition, MRCKα [4, 20]: -0.565%; %-inhibition at 1 µmol/L, TAOK2 [5, 21]: -2.59%; %-inhibition at 1 µmol/L, FLT4 [6, 22]: 1.51%; %-inhibition at 1 µmol/L, WNK1 [7, 23]: -1.42%; %-inhibition at 1 µmol/L, HIPK2 [8, 24]: 0.155% |
